Assay results: patent publication US9157121B2, “Method of treatment based on polymorphisms of the KCNQ1 gene” (Vanda Pharmaceuticals, Inc., priority 2009, dated 2015)
Values joined by “and” are separate entries in the source; they are usually repeats but may differ in a detail not shown here. Equal values may be shown once.

Columns and labels:
QTc interval [1] = conditions: cited from earlier work; for QTc prolongation: comparison of several antipsychotics
QTc interval [2] = assay: QTcF change following iloperidone or ziprasidone administration, by KCNQ1 and CYP2D6 genotype; assay type: in vivo, human; conditions: for QTcFmax Change: change from baseline
Description: The DNA variants in KCNQ1 noted above were examined for correlation with iloperidone-induced QT prolongation.
Individuals from an earlier study of CYP2D6 genotypes and a predisposition to QT prolongation were genotyped at each of the KCNQ1 SNPs above. 22 individuals had been given a dose of 8 mg of iloperidone b.i.d., 30 had been given 12 mg b.i.d., and 22 had been given 24 mg q.d.
The results were similar when ziprasidone was administered at a dosage of 80 mg b.i.d. The QTc changes for each genotype are shown below in Tables 4 and 5.
Tables 10 and 11 below show CYP2D6 metabolizer status against QTcFmax change from baseline for individuals having GG and non-GG genotypes, respectively, at the KCNQ1 79764 position SNP.
In order to assess the CYP2D6 component to such prolongation, QTc change was separately compared to the CYP2D6G1846A and CYP2D6C100T polymorphisms.
Tables 14 and 15 below show QTc changes in individuals grouped according to their KCNQ1 79764, CYP2D6G1846A, and CYP2D6C100T genotypes. […] Similarly, individuals who were GG at KCNQ1 79764 and had one or two mutant alleles at the CYP2D6 loci (i.e., AG or AA at CYP2D6G1846A and CT or TT at CYP2D6C100T) experienced the greatest QT prolongation.

QTc interval [3] = conditions: cited from earlier work
CYP2D6 = CYP2D6 (Homo sapiens, UniProt P10635); conditions: cited from earlier work
QT interval = assay: QT prolongation following iloperidone in 174 individuals genotyped at SNP_A-2279707 (rs179407); assay type: in vivo, human; conditions: oral 24 mg/day B.I.D. for two weeks; for High QT, + test (number of individuals) / Low QT, + test (number of individuals): rs179407 genotype TT; for High QT, − test (number of individuals) / Low QT, − test (number of individuals): rs179407 genotype not TT; for Odds Ratio: rs179407 TT versus not TT

Sequence of CYP2D6 (P10635 whole entry): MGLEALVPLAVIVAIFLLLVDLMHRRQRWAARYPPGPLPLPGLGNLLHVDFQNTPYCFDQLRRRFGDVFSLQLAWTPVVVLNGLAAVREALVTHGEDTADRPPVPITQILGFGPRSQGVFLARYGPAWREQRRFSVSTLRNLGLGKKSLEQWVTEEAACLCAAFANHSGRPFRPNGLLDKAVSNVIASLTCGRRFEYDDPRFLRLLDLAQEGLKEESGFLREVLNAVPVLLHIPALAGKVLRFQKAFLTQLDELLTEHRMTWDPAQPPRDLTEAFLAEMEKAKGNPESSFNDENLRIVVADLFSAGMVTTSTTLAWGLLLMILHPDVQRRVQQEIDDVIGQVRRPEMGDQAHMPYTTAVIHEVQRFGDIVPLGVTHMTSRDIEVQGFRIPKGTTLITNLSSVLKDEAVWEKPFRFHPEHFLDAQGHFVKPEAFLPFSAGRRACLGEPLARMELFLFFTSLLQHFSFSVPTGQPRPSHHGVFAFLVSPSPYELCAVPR

O=C1Cc2cc(CCN3CCN(c4nsc5ccccc45)CC3)c(Cl)cc2N1 [Ziprasidone, ziprasidone]
QTc prolongation (QTc interval [1]): highest degree of QTc prolongation, followed by ziprasidone | QTcF change (QTc interval [2]; ziprasidone 80 mg b.i.d., KCNQ1 79764 SNP genotype CC): 8.30 ms | QTcF change (QTc interval [2]; ziprasidone 80 mg b.i.d., KCNQ1 79764 SNP genotype CG): 6.19 ms | QTcF change (QTc interval [2]; ziprasidone 80 mg b.i.d., KCNQ1 79764 SNP genotype GG): 15.32 ms | QTcF change (QTc interval [2]; ziprasidone 80 mg b.i.d., KCNQ1 79764 SNP genotype Non-GG): 6.75 ms

OCCOCCN1CCN(C2=Nc3ccccc3Sc3ccccc32)CC1 [Quetiapine]
QTc prolongation (QTc interval [1]): associated with a prolongation of the QTc interval

COc1cc(C(C)=O)ccc1OCCCN1CCC(c2noc3cc(F)ccc23)CC1 [Iloperidone]
effect on the QTcF duration with metabolic inhibition (QTc interval [3]; adding an inhibitor of CYP2D6): increases the effect of iloperidone on the QTcF duration | effect on QTc duration (QTc interval [3]; in vivo): some effects on QTc duration | metabolizing enzyme (CYP2D6): metabolized by CYP2D6 | High QT, + test (number of individuals) (QT interval; threshold QT > 5 msec): 102 | Low QT, + test (number of individuals) (QT interval; threshold QT > 5 msec): 47 | High QT, − test (number of individuals) (QT interval; threshold QT > 5 msec): 15 | Low QT, − test (number of individuals) (QT interval; threshold QT > 5 msec): 19 | Odds Ratio (QT interval; threshold QT > 5 msec): 2.749 | High QT, + test (number of individuals) (QT interval; threshold QT > 15 msec): 64 | Low QT, + test (number of individuals) (QT interval; threshold QT > 15 msec): 85 | High QT, − test (number of individuals) (QT interval; threshold QT > 15 msec): 9 | Low QT, − test (number of individuals) (QT interval; threshold QT > 15 msec): 25 | Odds Ratio (QT interval; threshold QT > 15 msec): 2.092 | High QT, + test (number of individuals) (QT interval; threshold QT > 30 msec): 26 | Low QT, + test (number of individuals) (QT interval; threshold QT > 30 msec): 123 | High QT, − test (number of individuals) (QT interval; threshold QT > 30 msec): 2 | Low QT, − test (number of individuals) (QT interval; threshold QT > 30 msec): 32 | Odds Ratio (QT interval; threshold QT > 30 msec): 3.382 | QTcFmax Change (QTc interval [2]; KCNQ1 79764 genotype GG, CYP2D6 metabolizer status Extensive): 16.4 ms | QTcFmax Change (QTc interval [2]; KCNQ1 79764 genotype GG, CYP2D6 metabolizer status Intermediate): 18.1 ms | QTcFmax Change (QTc interval [2]; KCNQ1 79764 genotype GG, CYP2D6 metabolizer status Poor): 33.6 ms | QTcFmax Change (QTc interval [2]; KCNQ1 79764 genotype Non-GG, CYP2D6 metabolizer status Extensive): 8.3 ms | QTcFmax Change (QTc interval [2]; KCNQ1 79764 genotype Non-GG, CYP2D6 metabolizer status Intermediate): 3.1 ms | QTcFmax Change (QTc interval [2]; KCNQ1 79764 genotype Non-GG, CYP2D6 metabolizer status Poor): 24.6 ms | QTcF change (QTc interval [2]; iloperidone 8 mg b.i.d., 12 mg b.i.d. or 24 mg q.d., KCNQ1 79764 SNP genotype CC): 10.38 ms | QTcF change (QTc interval [2]; iloperidone 8 mg b.i.d., 12 mg b.i.d. or 24 mg q.d., KCNQ1 79764 SNP genotype CG): 6.80 ms | QTcF change (QTc interval [2]; iloperidone 8 mg b.i.d., 12 mg b.i.d. or 24 mg q.d., KCNQ1 79764 SNP genotype GG): 17.58 ms | QTcF change (QTc interval [2]; iloperidone 8 mg b.i.d., 12 mg b.i.d. or 24 mg q.d., KCNQ1 79764 SNP genotype Non-GG): 7.83 ms | QTcF change (QTc interval [2]; iloperidone, CYP2D6C100T genotype CC): 10.8 ms | QTcF change (QTc interval [2]; iloperidone, CYP2D6C100T genotype CT): 16.9 ms | QTcF change (QTc interval [2]; iloperidone, CYP2D6C100T genotype Non-CC): 19.2 ms | QTcF change (QTc interval [2]; iloperidone, CYP2D6C100T genotype TT): 31.3 ms | QTcF change (QTc interval [2]; iloperidone, CYP2D6G1846A genotype AA): 41.6 ms | QTcF change (QTc interval [2]; iloperidone, CYP2D6G1846A genotype AG): 15.9 ms | QTcF change (QTc interval [2]; iloperidone, CYP2D6G1846A genotype GG): 11.1 ms | QTcF change (QTc interval [2]; iloperidone, CYP2D6G1846A genotype Non-GG): 18.5 ms | QTcF change (QTc interval [2]; iloperidone, KCNQ1 78927 position SNP genotype AA): 7.21 ms | QTcF change (QTc interval [2]; iloperidone, KCNQ1 78927 position SNP genotype AC): 9.19 ms | QTcF change (QTc interval [2]; iloperidone, KCNQ1 78927 position SNP genotype CC): 14.08 ms | QTcF change (QTc interval [2]; iloperidone, KCNQ1 78927 position SNP genotype Non-CC): 6.46 ms | QTcF change (QTc interval [2]; iloperidone, KCNQ1 79764 GG and CYP2D6C100T CC): 19.2 (n = 15) msec | QTcF change (QTc interval [2]; iloperidone, KCNQ1 79764 GG and CYP2D6C100T non-CC): 23.5 (n = 10) msec | QTcF change (QTc interval [2]; iloperidone, KCNQ1 79764 GG and CYP2D6G1846A GG): 19.5 (n = 15) msec | QTcF change (QTc interval [2]; iloperidone, KCNQ1 79764 GG and CYP2D6G1846A non-GG): 25.5 (n = 10) msec | average QTc change, GG genotype relative to non-GG genotype (QTc interval [2]; iloperidone, KCNQ1 79764 SNP): more than twice the change in individuals with a non-GG genotype | QTcF change (QTc interval [2]; iloperidone, KCNQ1 79764 non-GG and CYP2D6C100T CC): 7.4 (n = 35) msec | QTcF change (QTc interval [2]; iloperidone, KCNQ1 79764 non-GG and CYP2D6C100T non-CC): 12.6 (n = 7) msec | QTcF change (QTc interval [2]; iloperidone, KCNQ1 79764 non-GG and CYP2D6G1846A GG): 7.6 (n = 34) msec | QTcF change (QTc interval [2]; iloperidone, KCNQ1 79764 non-GG and CYP2D6G1846A non-GG): 9.6 (n = 6) msec | QTcF change (QTc interval [2]; iloperidone, KCNQ1 286414 position SNP genotype AA): 12.50 ms and 12.51 ms | QTcF change (QTc interval [2]; iloperidone, KCNQ1 286414 position SNP genotype AG): 3.15 ms | QTcF change (QTc interval [2]; iloperidone, KCNQ1 286414 position SNP genotype GG): 10.34 ms | QTcF change (QTc interval [2]; iloperidone, KCNQ1 286414 position SNP genotype Non-AA): 5.16 ms

Cc1cc2c(s1)Nc1ccccc1N=C2N1CCN(C)CC1 [olanzapine]
QTc prolongation (QTc interval [1]): associated with a prolongation of the QTc interval

Cc1nc2n(c(=O)c1CCN1CCC(c3noc4cc(F)ccc34)CC1)CCCC2 [risperidone]
QTc prolongation (QTc interval [1]): associated with a prolongation of the QTc interval

O=C(CCCN1CCC(O)(c2ccc(Cl)cc2)CC1)c1ccc(F)cc1 [haloperidol]
increase in QTc with metabolic inhibition (QTc interval [1]; with metabolic inhibitors of the CYP450 isoenzyme responsible for the metabolism of each drug): doubling of QTc
